Source: US8658357B2, “Orotate transporter encoding marker genes” (Novozymes A/S, priority 2004, dated 2014)

How the values were obtained:
[1] = test system: L. lactis NCDO712 and MG1363; assay: Screening for FOA sensitivity by streaking on SA-glucose plates with FOA; format: cell-based, Lactococcus lactis ssp. cremoris
Method: Lactococcal cultures were grown at 30° C. either in M17 broth (Terzaghi and Sandine, 1975) or in minimal SA-medium (Jensen and Hammer, 1993) supplemented with 0.5% and 1% glucose, respectively. E. coli strains were grown at 37° C. either in Luria-Bertani (LB) broth or in minimal ABTG medium (Clark and Maaløe, 1967). B. subtilis strains were grown at 37° C. either in LB medium or in minimal MM medium. Agar plates were made by adding […] agar to the broth medium. If necessary, the following supplements were added to the different media: orotate at 20 micro-g/ml, uracil at 20 micro-g/ml, 5-fluoroorotate (FOA) at 20 micro-g/ml, erythromycin at 5 micro-g/ml, chloramphenicol at 5 micro-g/ml for lactococci and 20 micro-g/ml for E. coli, ampicillin at 100 micro-g/ml.
QIAGEN™ purified plasmid DNA of pED210 and pCI3440 was introduced into competent NCDO712 and MG1363 cells by electroporation, and transformants harboring either plasmid pED210 or pCI3440 were selected at 30° C. on SR plates supplemented with 5 micro-g/ml chloramphenicol. Transformants harboring either pED210 or pCI3440 were screened for FOA sensitivity by streaking them on SA-glucose plates with 20 micro-g/ml FOA, and incubation overnight at 30° C.

E. coli XL1-Blue = assay: Screening for fluoroorotate sensitivity by streaking on ABTG plates; format: cell-based, Escherichia coli
Method: QIAGEN™-purified plasmid DNA of pED301 (ysbC), or pDG268 (negative control) was introduced into competent XL1-Blue cells by the heat shock procedure, and transformants harboring plasmid pED301 or pDG268 were selected at 37° C. on LB plates supplemented with 100 micro-g/ml ampicillin. Transformants were screened for fluoroorotate sensitivity by streaking them on ABTG plates without or with 20 micro-g/ml fluoroorotate and incubation overnight at 37° C.

[2] = test system: B. subtilis HH263 derived strains ED344 and ED348; assay: FOA sensitivity by streaking on selective MM plates; format: cell-based, Bacillus subtilis
Method: The resulting strains were denoted ED344 (HH263 amyE::pDG268) and ED348 (HH263 amyE::pED301). ED344 and ED348 were streaked on selective MM plates containing 5 micro-g/ml neomycine, one with 20 micro-g/ml FOA, and one without. The screening plates were incubated overnight at 37° C.

O=C(O)c1[nH]c(=O)[nH]c(=O)c1F [FOA, 5-fluoroorotate]
FOA resistance/sensitivity (growth) ([1]; L. lactis strain ED79.1175 (MG1363 ΔpyrDa ΔpyrDb)): resistant
FOA resistance/sensitivity (growth) ([1]; NCDO712 and MG1363 containing plasmid pED210 (ysbC), 20 micro-g/ml FOA, SA-glucose plates, overnight 30° C.): sensitive
FOA resistance/sensitivity (growth) ([1]; NCDO712 and MG1363 containing vector pCI3440 (control), 20 micro-g/ml FOA, SA-glucose plates, overnight 30° C.): resistant
FOA resistance/sensitivity (growth) ([1]; untransformed L. lactis NCDO712 and MG1363): resistant
FOA resistance/sensitivity (growth) (E. coli XL1-Blue; XL1-Blue harbouring pED301 (ysbC), 20 micro-g/ml fluoroorotate, ABTG plates, overnight 37° C.): sensitive
FOA resistance/sensitivity (growth) (E. coli XL1-Blue; untransformed E. coli XL1-Blue): resistant
FOA resistance/sensitivity (growth) ([2]; ED344 (HH263 amyE::pDG268, control), 20 micro-g/ml FOA, MM plates, overnight 37° C.): resistant
FOA resistance/sensitivity (growth) ([2]; ED348 (HH263 amyE::pED301, ysbC), 20 micro-g/ml FOA, MM plates, overnight 37° C.): sensitive
FOA resistance/sensitivity (growth) ([2]; untransformed B. subtilis HH263 (168 trpC2)): resistant
